Reference: patent publication EP0748311B1, “THERAPEUTIC BENZONITRILES” (THE WELLCOME FOUNDATION LIMITED, priority 1994, dated 1995)
Read-outs that look alike come from different tables or passages of the source.

How the values were obtained:
[1] = tested on: HIV-1 (strain 3B); experiment: HIV assay: reversal of the cytopathic effect of HIV infection in MT4 cells (propidium iodide dye uptake); assay type: cell-based; conditions: Human immunodeficiency virus 1, 120 h, Anti-HIV-1 activity, day 5 post infection
Protocol: Anti-HIV activity of compounds of the invention was determined using the method of Averett D.R., J.Virol. Methods, […], 23, 263-276, by measuring the ability of the compound to reverse the cytopathic effect of HIV infection. This was determined by a quantitative assessment of cell growth monitored at the fifth day post infection by a propidium iodide dye uptake test. MT4 cells were incubated with 100XTCID50 of HIV-1 (strain 3B) or HIV-2 (strain ZY) for one hour prior to addition of the compound in six different concentrations varying from 2 to 200 µM. The cells were allowed to incubate for five days at 37°C. On day 5, NP-40, a detergent, was added to a final concentration of 0.5% immediately prior to analysis. Cell number was determined using a method which measures the fluorescence of a dye (propidium iodide) which binds to DNA. Since the amount of DNA is directly proportional to cell number, this fluorescence assay is an indication of cell growth. While uninfected cells double in cell number several times during the five days duration of the assay, HIV-infected cells grow very little, if at all. A compound which reverses the cytopathic effect of HIV would allow for rapid cell growth, approaching that of the mock-infected cells. […]

[2] = tested on: male Lewis rats; experiment: Carrageenan pleurisy assay (4 hour); assay type: in vivo; conditions: 4 h after carrageenan, relative to solvent (vehicle) control animals; for % INHIBITION CELLS: inflammatory cells (neutrophils) in pleural exudate; for % INHIBITION EDEMA: pleural edema
Protocol: The antiinflammatory activity of compounds of the invention was determined by the procedure of Vinegar, R. et al., Proc. Soc. Exp. Biol. Med., 1981, 168, 24-32, using male Lewis rats of 150 ± 20 grams. The carrageenan dose was 0.075 mg/rat. Pleural exudate was harvested four hours after injection of carageenan. Acute antiinflammatory activity was determined by inhibition of pleural edema and infammatory cells (neutrophils) from a negative (vehicle) control group.
Acute Anti-inflammatory Activity of Compounds in the 4 Hour Carrageenan Pleurisy Assay in Rats

[3] = Cytotoxicity: inhibition of cell growth; assay type: cell-based; conditions: human
Protocol: Compounds of the invention were tested for the inhibition of growth of human T-cells (Molt 4), B-cells (IM9) and CEM cells by the method of Averett, D.R., J. Virol. Methods, 23, 263-276 (1989). Cells were grown as described in Prus, K.L., et al., Cancer Res., 50(6), 1817-1821 (1990).

## COc1cccc(S(=O)(=O)c2cccc(N)c2C#N)c1 [Example 2, 2-Amino-6-[(3-methoxyphenyl)sulfonyl]benzonitrile]
[1]
  IC50: 0.92 ± 0.04 µM

## Cc1cc(C)cc(S(=O)(=O)c2cccc(N)c2C#N)c1 [Example 4, 2-Amino-6-[(3,5-dimethylphenyl)sulfonyl]benzontrile]
[2]; @ 25 MG/KG (IP)
  % INHIBITION CELLS: 0%
  % INHIBITION EDEMA: 5%
[2]; @ 50 MG/KG (PO)
  % INHIBITION CELLS: 29%
  % INHIBITION EDEMA: 31%
[3]; cem cells, read-out: % of Cells Surviving at 100 µM
  viability at 100 µM: 70%
[3]; im9 cells, read-out: % of Cells Surviving at 100 µM
  viability at 100 µM: 97%
[3]; molt 4 cells, Molt4, read-out: % of Cells Surviving at 100 µM
  viability at 100 µM: 91%
[1]
  IC50: 0.014 ± 0.001 µM
